Results as given in US11224565B2, “N-acyldipeptide derivatives and their uses” (NeoStrata Company, Inc., priority 2011, dated 2022).
Peptide text beside a SMILES is read from it.

Key:
Format in all cases: in vivo, human
[1] = tested on: Aging related changes of skin, nail and hair; test: Summary of test results in volunteer subjects: aging related changes; settings: efficacy grade
[2] = tested on: Disturbed keratinization; test: Summary of test results in volunteer subjects: disturbed keratinization; settings: efficacy grade
Procedure, shortened: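 Volunteers applied N-acyldipeptide derivatives dissolved in water/ethanol/propylene glycol 40:40:20, ethanol/propylene glycol 80:20, or water/propylene glycol 80:20 mixed into oil-in-water cream, on involved skin once or twice daily for several weeks or until clearing. Vehicle applied twice daily as control; disturbed keratinization lesions assessed clinically.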

[3] = tested on: Deranged immune disorders and inflammation; test: Summary of test results in volunteer subjects: deranged immune disorders and inflammation; settings: efficacy grade
Procedure, shortened: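 Volunteers applied N-acyldipeptide derivatives topically once or twice daily for several weeks or until lesions cleared. Compounds were dissolved in water/ethanol/propylene glycol (40:40:20) or ethanol/propylene glycol (80:20), or in water/propylene glycol (80:20) mixed into an oil-in-water cream. Vehicle control applied twice daily.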

[4] = tested on: Nerve disorders; test: Summary of test results in volunteer subjects: nerve disorders; settings: efficacy grade
Procedure, shortened: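 Volunteers applied N-acyldipeptide derivatives dissolved in water/ethanol/propylene glycol (40:40:20), ethanol/propylene glycol (80:20), or water/propylene glycol (80:20) mixed into cream, once or twice daily for several weeks or until lesions cleared. Vehicle control applied twice daily; application also over arthritic joints or painful muscles.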

[5] = tested on: inflammation, dermatitis, or eczema lesions; test: Topical application to chronic inflammation, dermatitis, eczema or allergic skin lesions, clinical evaluation; settings: for skin color of treated skin compared to surrounding untreated skin: 4 weeks, 0.5% N-Ac-L-Tyr-L-Tyr-NH2 solution or 0.4% N-Ac-L-Val-L-Ala-NH2 in WEP442
Source text: In another embodiment, the volunteer subject topically applied the test compositions containing N-acyldipeptide derivatives of the present invention on involved skin or lesions once or twice daily for several weeks or until the involved lesions completely cleared and clinically changed to normal skin. As a control study, the subject also topically applied a vehicle control composition on the involved skin or lesions twice daily for the same period.

[6] = chronic eczema right leg, twice daily
[7] = chronic eczema right leg, twice daily, 0.5% (w/v) N-Ac-L-Tyr-L-Tyr-NH2 solution pH 6.7 on one lesion, 0.4% (w/v) N-Ac-L-Val-L-Ala-NH2 in WEP442 pH 5.8 on second
[8] = chronic eczema of legs, twice daily, 2% (w/v) N-Ac-L-Val-L-Ala-NH2 cream on one leg, 0.5% (w/w) N-Ac-L-Tyr-L-Tyr-NHNHAc in WEP442 pH 5.5 on the other

| SMILES | AG [1] | DK [2] | DI [3] | ND [4] | skin color of treated skin compared to surrounding untreated skin [5, 6] | itch after topical application [5, 7] | itch after topical application [5, 8] | improvement as judged by clinical evaluation ([5]; chronic eczema, twice daily, two weeks, 0.6% (w/w) N-Ac-L-Tyr-L-Tyr-NHNH2 cream on one set of lesions, 0.7% (w/w) N-Ac-L-Tyr-L-Tyr-NHNHAc cream on another) | itch after topical application ([5]; chronic eczema, twice daily, 0.6% (w/w) N-Ac-L-Tyr-L-Tyr-NHNH2 cream on one set of lesions, 0.7% (w/w) N-Ac-L-Tyr-L-Tyr-NHNHAc cream on another) | itch after topical application ([5]; 0.5% (w/w) cream twice daily, skin allergy from shellfish with reddish papules) | improvement as judged by clinical evaluation ([5]; 0.5% (w/w) cream twice daily, skin allergy from shellfish, end of 5 days) |
| --- | --- | --- | --- | --- | --- | --- | --- | --- | --- | --- | --- |
| CC(=O)N[C@@H](Cc1ccc(O)cc1)C(=O)N[C@@H](Cc1ccc(O)cc1)C(N)=O [N-Ac-L-Tyr-L-Tyr-NH2] (Ac-Tyr-Tyr-NH2) | 4+ (4+: 95-100% Efficacy) | 4+ (4+: 95-100% Efficacy) | 4+ (4+: 95-100% Efficacy) | 4+ (4+: 95-100% Efficacy) | much lighter in skin color | stopped within a few minutes |  |  |  |  |  |
| CC(=O)NNC(=O)[C@H](Cc1ccc(O)cc1)NC(=O)[C@H](Cc1ccc(O)cc1)NC(C)=O [N-Ac-L-Tyr-L-Tyr-NHNHAc] | 3+ (3+: 75% Efficacy) | 4+ (4+: 95-100% Efficacy) | 4+ (4+: 95-100% Efficacy) | 4+ (4+: 95-100% Efficacy) |  |  | stopped within a few minutes | 100% | stopped immediately |  |  |
| CC(=O)N[C@H](C(=O)N[C@@H](C)C(N)=O)C(C)C [N-Ac-L-Val-L-Ala-NH2] (Ac-Val-Ala-NH2) | 4+ (4+: 95-100% Efficacy) | 4+ (4+: 95-100% Efficacy) | 4+ (4+: 95-100% Efficacy) | 4+ (4+: 95-100% Efficacy) | much lighter in skin color | stopped within a few minutes | stopped within a few minutes |  |  | stopped within a few minutes | 75% |
